Measurements published in patent US11179394B2, “Method for treating cancer using a combination of Chk1 and ATR inhibitors” (priority 2014, dated 2021).

Tests used:
[1] = system: H460 lung cancer cell line; details: AZD7762 25 mg/kg intraperitoneal, VE-822 60 mg/kg oral gavage; for survival: combination vs monotherapy P<0.01; for tumor size / tumor growth: combination vs monotherapy P<0.05
Experimental: (§2) In the case of the MX-1 model, 2 million cells in 50% matrigel were injected in nude mice and for the H460 model 5 million cells in PBS were injected in nude mice. After 8-9 days of implantation animals were divided into 4 groups of 5 animals based on tumor size; with mean tumor volume of 130 mm^3. […] Body weight and tumor volume were measured twice a week. Tumor volume was measured with caliper and shown as mean±S.E.M (length×width×width×0.52).

[2] = system: BJ RAS cells (BJ-SV40T transformed with activated H-RAS(G12V)); assay: Cell viability by resazurin staining; details: 72 hours, VE-821 up to 5 μM, AZD7762 30 nM
Experimental: (§3) In addition, the impact of expression of the H-RAS oncogene was assessed in the BJ-SV40T cells transformed with activated H-RAS(G12V) (BJ RAS).

[3] = system: HA1EB-GFP parental cells; assay: Cell viability by resazurin staining; format: cell-based; details: 72 hours, VE-821 up to 5 μM, AZD7762 30 nM
[4] = system: cMYC transformed cells, HA1EB-GFP-cMYC; assay: Cell viability by resazurin staining; details: 72 hours, VE-821 up to 5 μM, AZD7762 30 nM
[5] = system: BJ-SV40T cells (p53 and RB inactivated); assay: Cell viability by resazurin staining; details: 72 hours, VE-821 up to 5 μM, AZD7762 30 nM
Experimental: as §3

[6] = system: MX-1 breast cancer cell line; details: AZD7762 25 mg/kg intraperitoneal, VE-822 60 mg/kg oral gavage; for survival: combination P<0.05
Experimental: as §2

[7] = system: BJ-hTERT parental cells; assay: Cell viability by resazurin staining; format: cell-based; details: 72 hours, AZD7762 30 nM
Experimental: Referring to FIG. 2D, an isogenic cell pair was used to assess the impact of loss of p53 and RB on cell sensitivity to the combination of VE-821 and AZD7762 (BJ-hTERT parental cells vs BJ-SV40T cells expressing the Large Tumor Antigen which inactivates p53 and RB function). In addition, the impact of expression of the H-RAS oncogene was assessed in the BJ-SV40T cells transformed with activated H-RAS(G12V) (BJ RAS). Cells were treated with either VE-821 alone (at concentrations up to 5 μM), AZD7762 alone (30 nM) or the combination of VE-821 and AZD7762 for 72 hours.

[8] = target: ATR (Homo sapiens, UniProt Q13535); details: 1 μM VE-821; cited from earlier work
[9] = system: Parental DLD-1 cells; assay: cells; format: cell-based; details: Homo sapiens, DLD-1, read-out: cell viability
Experimental: (§1) 500 cells of U2OS, MCF-7, DLD-1, DLD-1 Chk-1^S317A/-, DLD-1 Chk-1^+/−, DLD-1 ATR^S/S and 1000 cells of VH-10 were plated on 10 cm plate. After 5 hr. of incubation (5% CO2 at 37° C.) vehicle (0.05% DMSO max) various concentration of ATR inhibitor VE-821 were directly added to the media containing plate and incubated for 72 hr. At the end of 72 hr. of incubation, vehicle and drug containing media was replaced with fresh media and further incubated for another 5-8 days before plates were fixed and stained with 4% methylene blue in MeOH and colonies were counted manually. Each data point represents a triplicate data set±SEM.

[10] = system: U2OS cancer cells; assay: Clonogenic survival assay; format: cell-based; details: 1 μM VE-821, 72 hr, AZD7762 20 nM where combined
Experimental: as §1

[11] = system: MCF-7 cancer cells; assay: Clonogenic survival assay; format: cell-based; details: 1 μM VE-821, 72 hr, AZD7762 20 nM where combined
Experimental: as §1

[12] = system: DLD-1 cells expressing the inactive mutant form of Chk1 (S317A/-); assay: Clonogenic survival assay; format: cell-based; details: Homo sapiens; DLD-1 Chk1 S317A/-; 1 μM VE-821; read-out: viable cells remaining
Experimental: as §1

[13] = system: U2OS cells; assay: Cleaved caspase-3 (apoptosis) with hydroxyurea; format: cell-based; details: 24 hr, hydroxyurea (2 mM) alone
Experimental: Referring to FIG. 5, the impact of Chk1 inhibition by AZD7762 on cell apoptosis from treatment with the ATR inhibitor VE-821 and a representative DNA damaging agent, hydroxyl urea (2 mM), was assessed by measuring levels of cleaved caspase-3, a widely used marker of apoptosis. U2OS cells were treated for 24 hr. with the DNA damaging agent hydroxyurea and varied doses of AZD7762 and/or VE-821. Cells were subsequently stained with anti-cleavage caspase 3 and β actin antibodies and confocal microscopy used to take and quantify images. Data are presented as % cells positive for cleaved capsae-3.

Sequence of ATR (Q13535 whole entry): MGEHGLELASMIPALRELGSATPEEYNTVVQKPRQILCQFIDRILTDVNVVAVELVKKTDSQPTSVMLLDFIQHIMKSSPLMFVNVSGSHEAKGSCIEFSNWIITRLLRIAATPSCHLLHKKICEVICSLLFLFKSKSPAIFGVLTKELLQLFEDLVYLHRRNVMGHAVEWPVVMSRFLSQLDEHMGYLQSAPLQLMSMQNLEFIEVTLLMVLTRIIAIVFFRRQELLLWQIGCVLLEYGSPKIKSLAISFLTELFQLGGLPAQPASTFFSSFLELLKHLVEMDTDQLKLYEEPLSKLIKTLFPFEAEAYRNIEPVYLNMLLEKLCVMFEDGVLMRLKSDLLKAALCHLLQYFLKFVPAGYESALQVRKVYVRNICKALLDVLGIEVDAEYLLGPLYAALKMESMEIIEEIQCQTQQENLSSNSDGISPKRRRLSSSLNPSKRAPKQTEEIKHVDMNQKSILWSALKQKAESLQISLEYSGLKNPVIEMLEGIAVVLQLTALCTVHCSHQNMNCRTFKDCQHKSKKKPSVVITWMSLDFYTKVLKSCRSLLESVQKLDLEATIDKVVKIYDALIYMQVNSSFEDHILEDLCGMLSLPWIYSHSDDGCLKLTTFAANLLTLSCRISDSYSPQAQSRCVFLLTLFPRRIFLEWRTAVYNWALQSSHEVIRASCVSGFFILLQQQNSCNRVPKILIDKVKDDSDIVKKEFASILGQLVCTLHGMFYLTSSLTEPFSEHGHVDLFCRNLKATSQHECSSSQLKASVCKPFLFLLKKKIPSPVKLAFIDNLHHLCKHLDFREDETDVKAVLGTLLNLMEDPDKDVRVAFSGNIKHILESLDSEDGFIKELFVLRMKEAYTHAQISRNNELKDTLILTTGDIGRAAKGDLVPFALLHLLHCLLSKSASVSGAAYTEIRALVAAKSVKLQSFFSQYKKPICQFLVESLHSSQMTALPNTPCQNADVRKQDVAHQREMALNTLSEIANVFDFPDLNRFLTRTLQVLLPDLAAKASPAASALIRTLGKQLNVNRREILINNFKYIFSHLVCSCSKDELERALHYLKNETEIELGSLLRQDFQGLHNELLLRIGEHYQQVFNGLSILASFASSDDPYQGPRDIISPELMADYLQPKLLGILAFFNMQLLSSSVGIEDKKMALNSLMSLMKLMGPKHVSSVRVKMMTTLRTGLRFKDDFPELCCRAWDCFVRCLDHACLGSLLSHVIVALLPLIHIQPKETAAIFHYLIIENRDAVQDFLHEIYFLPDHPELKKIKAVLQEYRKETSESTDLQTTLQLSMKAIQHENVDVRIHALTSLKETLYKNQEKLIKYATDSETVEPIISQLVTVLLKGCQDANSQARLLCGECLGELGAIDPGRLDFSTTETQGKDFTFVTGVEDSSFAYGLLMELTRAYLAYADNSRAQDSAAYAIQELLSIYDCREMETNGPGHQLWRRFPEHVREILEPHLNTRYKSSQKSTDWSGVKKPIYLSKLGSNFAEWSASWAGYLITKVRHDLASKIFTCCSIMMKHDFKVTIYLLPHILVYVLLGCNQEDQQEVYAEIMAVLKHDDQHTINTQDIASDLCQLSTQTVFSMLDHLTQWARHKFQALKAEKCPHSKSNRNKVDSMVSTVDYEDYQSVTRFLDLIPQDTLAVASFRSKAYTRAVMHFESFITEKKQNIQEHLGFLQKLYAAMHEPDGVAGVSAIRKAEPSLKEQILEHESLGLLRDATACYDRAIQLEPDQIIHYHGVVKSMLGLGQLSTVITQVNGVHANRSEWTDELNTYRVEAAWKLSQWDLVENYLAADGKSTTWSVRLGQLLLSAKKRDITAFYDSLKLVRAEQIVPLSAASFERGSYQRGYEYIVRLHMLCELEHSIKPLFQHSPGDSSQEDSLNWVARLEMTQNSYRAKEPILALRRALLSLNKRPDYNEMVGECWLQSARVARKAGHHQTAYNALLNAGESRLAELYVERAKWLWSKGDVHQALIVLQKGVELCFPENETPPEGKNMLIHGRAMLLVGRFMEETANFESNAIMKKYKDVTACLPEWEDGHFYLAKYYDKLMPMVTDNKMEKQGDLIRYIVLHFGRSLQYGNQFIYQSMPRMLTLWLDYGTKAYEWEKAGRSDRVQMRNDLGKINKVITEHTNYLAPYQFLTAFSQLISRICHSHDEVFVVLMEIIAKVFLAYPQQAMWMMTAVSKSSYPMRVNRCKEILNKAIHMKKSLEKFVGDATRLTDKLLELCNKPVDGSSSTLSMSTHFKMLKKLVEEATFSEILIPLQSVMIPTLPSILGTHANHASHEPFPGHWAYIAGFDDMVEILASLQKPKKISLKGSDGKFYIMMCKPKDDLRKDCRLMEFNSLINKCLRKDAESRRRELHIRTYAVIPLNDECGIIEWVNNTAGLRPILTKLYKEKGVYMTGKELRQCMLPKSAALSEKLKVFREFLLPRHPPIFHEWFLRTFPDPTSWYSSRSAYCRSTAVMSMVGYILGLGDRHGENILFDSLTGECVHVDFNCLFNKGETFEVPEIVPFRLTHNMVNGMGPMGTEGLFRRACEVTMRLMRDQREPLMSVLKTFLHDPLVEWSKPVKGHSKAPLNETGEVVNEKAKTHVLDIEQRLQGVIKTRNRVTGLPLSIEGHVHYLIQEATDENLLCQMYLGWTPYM
Sequence of ATR (Q8WXE1 whole entry partner): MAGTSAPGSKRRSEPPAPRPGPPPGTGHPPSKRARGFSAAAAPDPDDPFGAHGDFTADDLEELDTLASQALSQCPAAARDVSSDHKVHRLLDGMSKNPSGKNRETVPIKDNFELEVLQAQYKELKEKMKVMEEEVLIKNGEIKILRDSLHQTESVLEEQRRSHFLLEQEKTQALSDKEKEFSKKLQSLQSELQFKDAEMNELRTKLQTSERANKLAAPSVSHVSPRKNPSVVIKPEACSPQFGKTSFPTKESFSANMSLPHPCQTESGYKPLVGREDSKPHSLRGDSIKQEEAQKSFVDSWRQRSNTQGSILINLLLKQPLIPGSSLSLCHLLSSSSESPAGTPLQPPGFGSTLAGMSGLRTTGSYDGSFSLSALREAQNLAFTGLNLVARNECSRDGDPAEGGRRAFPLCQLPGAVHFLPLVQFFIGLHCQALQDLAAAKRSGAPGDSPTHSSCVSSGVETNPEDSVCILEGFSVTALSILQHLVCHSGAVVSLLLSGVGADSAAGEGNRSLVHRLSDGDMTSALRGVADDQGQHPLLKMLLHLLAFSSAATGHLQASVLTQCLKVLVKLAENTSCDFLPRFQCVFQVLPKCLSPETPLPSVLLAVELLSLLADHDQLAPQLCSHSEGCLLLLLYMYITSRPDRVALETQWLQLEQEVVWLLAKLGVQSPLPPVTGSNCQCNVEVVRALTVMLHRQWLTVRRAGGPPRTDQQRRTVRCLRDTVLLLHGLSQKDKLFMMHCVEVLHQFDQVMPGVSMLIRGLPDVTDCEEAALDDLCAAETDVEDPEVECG

| SMILES | survival [1] | tumor size / tumor growth [1] | viable cells remaining [2] | effect on viability [3] | viable cells remaining [4] | viable cells remaining [5] | tumor size / tumor growth [6] | survival [6] | effect on viability [7] | ATR activity inhibited [8] | viability at 1 µM [9] [%] | clonogenic survival [10] | clonogenic survival [11] | viability at 1 µM [12] [%] | cells positive for cleaved caspase-3 [13] [%] |
| --- | --- | --- | --- | --- | --- | --- | --- | --- | --- | --- | --- | --- | --- | --- | --- |
| NC(=O)Nc1cc(-c2cccc(F)c2)sc1C(=O)N[C@H]1CCCNC1 [AZD7762, reference compound] | minimal impact | minimal impact | did not have a marked effect | Neither VE-821 nor AZD7762 had a marked effect | did not impact the viability | did not have a marked effect | reduced tumor growth | no impact | did not have a marked effect | – | – | – | – | – | – |
| CS(=O)(=O)c1ccc(-c2cnc(N)c(C(=O)Nc3ccccc3)n2)cc1 [VE-821] | – | – | ~60% | Neither VE-821 nor AZD7762 had a marked effect | ~40% | – | – | – | – | about 50% | ~100 | 10-20% | 10-20% | < 3 | – |
| CNCc1ccc(-c2cc(-c3nc(-c4ccc(S(=O)(=O)C(C)C)cc4)cnc3N)on2)cc1 [VE-822] | minimal impact | minimal impact | – | – | – | – | minimal impact | minimal impact | – | – | – | – | – | – | – |
| NC(=O)NO [hydroxyurea] | – | – | – | – | – | – | – | – | – | – | – | – | – | – | < 0.5 |
